Experimental data reported in patent US11291208B2, “Ternary herbicide combinations” (Bayer CropScience Aktiengesellschaft, priority 2013, dated 2022).

Tests used:
Format in all cases: in vivo
VERPE: Veronica persica = assay: Herbicidal action, outdoor/field trials, post-emergence; details: crop TRZAW, field trials
Description: (§1) The seeds or rhizome pieces of typical harmful plants were planted and grown under natural outdoor conditions. After the harmful plants had emerged, they were treated, as a rule at the 2- to 4-leaf stage, with various dosages of the compositions according to the invention at a water application rate of […] (converted).
(§2) After the treatment (approx. 4-6 weeks after application), the herbidical activity of the active compounds or active compound mixtures was scored visually by comparing the treated plots with the untreated control plots. Damage and development of all above-ground parts of the plants was recorded. Scoring was done on a percentage scale (100% action=all plants dead; 50% action=50% of the plants and green plant parts dead; 0% action=no discernible action=like control plot). The score figures of in each case 4 plots were averaged.
(§3) The growth stages of the different weed species are indicated according to the BBCH monograph “Growth stages of mono- and dicotyledonous plants”, 2nd edition, 2001, ed. Uwe Meier, Federal Biological Research Centre for Agriculture and Forestry (Biologische Bundesanstalt für Land and Forstwirtschaft). The respective BBCH stages are indicated in brackets for the different weed species.
(§4) The dose rates of herbicidal ingredients used in each case are indicated for the respective active ingredient in brackets and refer to the amount of active ingredient per hectare (g/ha).
(§5) The herbicidal effects observed for the herbicide (mixtures) are indicated in % Activity against the respective weed. The % Damage indicated refers to the maximum damage observed in the respective crop.
(§6) The results of the treatments are reflected in the Tables below, and the activity measured for the independent use of the active compounds (A+B)+(C) is stated in brackets. The treatments were carried out using Mesosulfuron-methyl (A1-1) or Mesosulfuron-methyl-sodium (A1-2) as component (A), and Iodosulfuron-methyl (B1-1) or Iodosulfuron-methyl-sodium (B1-2) as component (B). The results of the treatments in these cases were essentially identical.

[1] = test system: VERHE: Veronica hederifolia; assay: as above; details: PXD 60 g/ha, VERHE (71), crop TRZAW, field trials
Description: as §1, §2, §3, §4, §5, §6

[2] = test system: GERDI: Geranium dissectum; assay: as above; details: crop TRZAW, field trials
Description: as §1, §2, §3, §4, §5, §6

BROST: Bromus sterilis = assay: as above; details: PXD 60 g/ha, BROST (25), crop TRZAW, field trials
Description: as §1, §2, §3, §4, §5, §6

CENCY: Centaurea Cyanus = assay: as above; details: crop TRZAW, field trials
Description: as §1, §2, §3, §4, §5, §6

[3] = test system: TRZAW: Triticum aestivum (soft wheat); assay: Crop damage in field trials (maximum damage observed in the crop)
Description: as §1, §2, §4, §5, §6

PAPRH: Papaver rhoeas = assay: Herbicidal action, outdoor/field trials, post-emergence; details: field trials
Description: as §1, §2, §3, §4, §5, §6

[4] = test system: LOLMU: Lolium multiflorum; assay: as above; details: TCM 7.5 g/ha, LOLMU (23), crop TRZDU, field trials
Description: as §1, §2, §3, §4, §5, §6

[5] = test system: LAMAM: Lamium amplexicaule; assay: as above; details: TCM 7.5 g/ha, LAMAM (32), crop TRZAW, field trials
Description: as §1, §2, §3, §4, §5, §6

VIOAR: Viola arvensis = assay: as above; details: TCM 7.5 g/ha, VIOAR (15), crop TRZAW, field trials
Description: as §1, §2, §3, §4, §5, §6

PICEC: Picris echioides = assay: as above; details: Helminthotheca echioides, TCM 7.5 g/ha, PICEC (22), crop TRZDU, field trials
Description: as §1, §2, §3, §4, §5, §6

AVEST: Avena sterilis = assay: as above; details: TCM 7.5 g/ha, AVEST (23), crop TRZDU, field trials
Description: as §1, §2, §3, §4, §5, §6

[6] = test system: MATIN: Matricaria inodora; assay: as above; details: Tripleurospermum inodorum, TCM 7.5 g/ha, MATIN (19), crop TRZAW, field trials
Description: as §1, §2, §3, §4, §5, §6

GALAP: Galium aparine = assay: as above; details: crop TRZAW, field trials
Description: as §1, §2, §3, §4, §5, §6

LAMPU: Lamium purpureum = assay: as above; details: TCM 7.5 g/ha, LAMPU (61), crop TRZAW, field trials
Description: as §1, §2, §3, §4, §5, §6

LOLRI: Lolium rigidum = assay: as above
Description: as §1, §2, §3, §4, §5, §6

[7] = test system: TRZDU: Triticum aestivum (durum wheat); assay: Crop damage in field trials (maximum damage observed in the crop); details: TCM 7.5 g/ha
Description: as §1, §2, §4, §5, §6

[8] = test system: FUMOF: Fumaria officinalis; assay: Herbicidal action, outdoor/field trials, post-emergence; details: HALXF 276.5 g/ha, crop TRZAW, field trials
Description: as §1, §2, §3, §4, §5, §6

`CCc1cc(C)cc(CC)c1-c1c(OC(=O)C(C)(C)C)n2n(c1=O)CCOCC2` [PXD, 8-(2,6-diethyl-4-methylphenyl)-1,2,4,5-tetrahydro-7-oxo-7H-pyrazolo[1,2-d][1,4,5]oxadiazepin-9-yl 2,2-dimethylpropanoate] showed an inhibition at 60 g/ha (VERPE: Veronica persica; PXD 60 g/ha, VERPE (31)) of 0%, an inhibition at 60 g/ha [1] of 13% and an inhibition at 60 g/ha ([2]; PXD 60 g/ha, GERDI (19)) of 30%. For the same compound, the inhibition at 60 g/ha (BROST: Bromus sterilis) was 0%, the inhibition at 60 g/ha (CENCY: Centaurea Cyanus; PXD 60 g/ha, CENCY (38)) was 60% and the “% Damage” value ([3]; PXD 60 g/ha, listed as BROST (25)) was 0%. The “% Damage” value ([3]; PXD 60 g/ha, listed as CENCY (38)) was 15%, the “% Damage” value ([3]; PXD 60 g/ha, listed as GERDI (19)) was 4% and the “% Damage” value ([3]; PXD 60 g/ha, listed as VERHE (71)) was 0%. The “% Damage” value ([3]; PXD 60 g/ha, listed as VERPE (31)) was 0%.

Work on `COC(=O)c1csc(C)c1S(=O)(=O)NC(=O)n1nc(OC)n(C)c1=O` [TCM, methyl 4-[(4,5-dihydro-3-methoxy-4-methyl-5-oxo-1H-1,2,4-triazol-1-yl)carbonylsulfamoyl]-5-methylthiophene-3-carboxylate] yielded an inhibition at 7.5 g/ha (PAPRH: Papaver rhoeas; TCM 7.5 g/ha, PAPRH (15), crop TRZDU) of 70%, an inhibition at 7.5 g/ha [4] of 43% and an inhibition at 7.5 g/ha (VERPE: Veronica persica; TCM 7.5 g/ha, VERPE) of 10%. It also gave an inhibition at 7.5 g/ha [5] of 68%, an inhibition at 7.5 g/ha (VIOAR: Viola arvensis) of 38% and an inhibition at 7.5 g/ha (PICEC: Picris echioides) of 69%. It also gave an inhibition at 7.5 g/ha (AVEST: Avena sterilis) of 33%, an inhibition at 7.5 g/ha [6] of 20% and an inhibition at 7.5 g/ha ([2]; TCM 7.5 g/ha, GERDI (29)) of 63%. For the same compound, the inhibition at 7.5 g/ha (GALAP: Galium aparine; TCM 7.5 g/ha, GALAP (23)) was 37%, the inhibition at 7.5 g/ha (LAMPU: Lamium purpureum) was 70% and the inhibition at 7.5 g/ha (LOLRI: Lolium rigidum; TCM 7.5 g/ha, LOLRI (29), crop TRZDU, field trials) was 52%. The inhibition at 7.5 g/ha (CENCY: Centaurea Cyanus; TCM 7.5 g/ha, CENCY (19)) was 38%, the “% Damage” value ([3]; TCM 7.5 g/ha, listed as CENCY (19)) was 0% and the “% Damage” value ([3]; TCM 7.5 g/ha, listed as CENCY (19), Table 2B) was 0%. For the same compound, the “% Damage” value ([3]; TCM 7.5 g/ha, listed as GALAP (23)) was 0%, the “% Damage” value ([3]; TCM 7.5 g/ha, listed as GALAP (23), Table 2B) was 0% and the “% Damage” value ([3]; TCM 7.5 g/ha, listed as GERDI (29)) was 0%. The “% Damage” value ([3]; TCM 7.5 g/ha, listed as GERDI (29), Table 2B) was 0%, the “% Damage” value ([3]; TCM 7.5 g/ha, listed as LAMAM (32)) was 1% and the “% Damage” value ([3]; TCM 7.5 g/ha, listed as LAMAM (32), Table 2B) was 1%. The “% Damage” value ([3]; TCM 7.5 g/ha, listed as LAMPU (61)) was 1%, the “% Damage” value ([3]; TCM 7.5 g/ha, listed as LAMPU (61), Table 2B) was 1% and the “% Damage” value ([3]; TCM 7.5 g/ha, listed as MATIN (19)) was 0%. For the same compound, the “% Damage” value ([3]; TCM 7.5 g/ha, listed as MATIN (19), Table 2B) was 0%, the “% Damage” value ([3]; TCM 7.5 g/ha, listed as VERPE) was 1% and the “% Damage” value ([3]; TCM 7.5 g/ha, listed as VERPE, Table 2B) was 1%. The “% Damage” value ([3]; TCM 7.5 g/ha, listed as VIOAR (15)) was 0%, the “% Damage” value ([3]; TCM 7.5 g/ha, listed as VIOAR (15), Table 2B) was 0% and the “% Damage” value ([7]; listed as AVEST (23)) was 0%. The “% Damage” value ([7]; listed as AVEST (23), Table 1B) was 0%, the “% Damage” value ([7]; listed as LOLMU (23)) was 0% and the “% Damage” value ([7]; listed as LOLMU (23), Table 1B) was 0%. For the same compound, the “% Damage” value ([7]; listed as LOLRI (29)) was 5%, the “% Damage” value ([7]; listed as LOLRI (29), Table 1B) was 5% and the “% Damage” value ([7]; listed as PAPRH (15)) was 0%. The “% Damage” value ([7]; listed as PAPRH (15), Table 1B) was 0%, the “% Damage” value ([7]; listed as PICEC (22)) was 5% and the “% Damage” value ([7]; listed as PICEC (22), Table 1B) was 5%.

Work on `COc1c(Cl)ccc(-c2cc(N)c(Cl)c(C(=O)O)n2)c1F` [HALXF, 4-amino-3-chloro-6-(4-chloro-2-fluoro-3-methoxyphenyl)-2-pyridinecarboxylic acid] yielded an inhibition at 276.5 g/ha (PAPRH: Papaver rhoeas; HALXF 276.5 g/ha, PAPRH, crop TRZAW) of 75%, an inhibition at 276.5 g/ha (GALAP: Galium aparine; HALXF 276.5 g/ha, GALAP) of 73% and an inhibition at 276.5 g/ha [8] of 85%. For the same compound, the inhibition at 276.5 g/ha (CENCY: Centaurea Cyanus; HALXF 276.5 g/ha, CENCY) was 45%, the “% Damage” value ([3]; HALXF 276.5 g/ha, listed as CENCY) was 0% and the “% Damage” value ([3]; HALXF 276.5 g/ha, listed as FUMOF) was 0%. For the same compound, the “% Damage” value ([3]; HALXF 276.5 g/ha, listed as GALAP) was 0% and the “% Damage” value ([3]; HALXF 276.5 g/ha, listed as PAPRH) was 0%.

Compound `COc1cc(OC)n2nc(NS(=O)(=O)c3c(C(F)(F)F)ccnc3OC)nc2n1` [PYX, N-(5,7-dimethoxy[1,2,4]triazolo[1,5-a]pyrimidin-2-yl)-2-methoxy-4-(trifluoromethyl)-3-pyridinesulfonamide] has an inhibition at 17 g/ha (LOLRI: Lolium rigidum; PYX 17 g/ha, LOLRI (10)) of 20%.
